How the values were obtained:
[1] = system: nonselective cation current of human corneal epithelial cells; assay: Perforated-patch whole-cell patch clamp, nonselective cation current; format: cell-based; conditions: 1 mM external
Protocol: (§1) Single cells for patch clamp analysis of transfected and non-transfected cells were obtained by washing cultured cells free of culture medium using PBS containing 0.53 mM EDTA and then incubating with Ca^+2 and Mg^+2 free Hanks' balanced salt solution (GIBCO) containing 0.05% trypsin and 0.53 mM EDTA for 2 minutes at 37° C. in a 5% CO2 incubator. Loose cells were aspirated into a Pasteur pipette and transferred into a conical tube containing Media 199 (Sigma, St. Louis, Mo.) supplemented with 10% FCS (Sigma, St. Louis, Mo.). Isolated cells were transferred to an inverted microscope mounted with an external stage, placed into an acrylic chamber filled with Ringer's solution, and allowed to settle and attach to the glass bottom.
Macroscopic currents in single cells were examined using the perforated-patch configuration of the whole-cell patch-clamp technique with amphotericin B as the perforating agent. […] Currents were recorded at room temperature using a patch-clamp amplifier operated by Gateway 486DX2 computer (Gateway 2000, Sioux City, S. Dak.) loaded with pCLAMP software (Axon 200A, Axon Instruments, Foster City, Calif.) for the generation of voltage-clamp protocols. Current recordings were capacity compensated using the amplifier circuitry, sampled between 2 to 5 kHz, filtered between 1 to 2 kHz, and subsequently analyzed with the software program. […]

[2] = system: immortalized HUVECs (Cell Lines); assay: Response to growth factors, immortalized HUVECs in matrix; format: cell-based, human
Protocol: For transfection, primary HUVECs were seeded onto uncoated 60 mm tissue culture plates and cultured until 60-70% confluent. They were then immortalized by infection with the HPV16 E6 and E7 genes and selected by G418 resistance as described above.
The virally transfected HUVECs were tested for functionality by their ability to undergo angiogenesis in a three-dimensional fibrin-containing matrix (FIG. 16); and their ability to sequester acetylated low density lipoprotein labelled with 1,1′-dioctadecyl-3,3,3′,3′-tetramethylindocarbocyanine perchlorate (DiI-Ac-LDL; Biomed. Technol. Inc., Stoughton, Mass.), (FIGS. 17 and 18). Immortalized HUVECs can also be maintained in the serum-free medium. As with corneal cell lines, other genes can also be introduced into HUVEC lines. For example, GFP has been introduced by transfection.
During the assays in matrices, cells were grown in serum (10%) supplemented-medium 199 containing heparin, L-glutamine or modified glutamine such as L-Alanyl-L-Glutamine (GlutaMAX™, GIBCO) and antibiotics at the same concentration as described above, without ECGS, but with 50 ng/ml of FGF-2. Serum-free medium has also been used.

[3] = system: primary HUVECs (Normal Cells); assay: Response to growth factors, primary HUVECs in matrix; format: cell-based, human
Protocol: Human umbilical vein endothelial cells (HUVECs) were harvested from umbilical cord veins as previously described (Sirois E, et al., Int. J. Artificial Organs 16:609-619, 1993). They were grown on a gelatin-coated dish until confluence in Medium 199 supplemented with 20% FBS, 90 mg/l of heparin, 2 mM of L-glutamine and 100 μg/ml endothelial cell growth supplement (ECGS). Penicillin (100 I.U./ml), streptomycin sulfate (100 μg/ml) and amphotericin B (0.25 μg/ml) were present in medium. After the first passage, FBS concentration was reduced to 10% and ECGS to 20 μg/ml. Cells were subcultured at a ratio of 1:3 or 1:4 and HUVECs from the 2nd to 4th passages were used in our bioassays. Endothelial cell phenotype was verified by the dii-acetylated low-density lipoprotein (diI-Ac-LDL) uptake and positivity to factor VIII-related antigen antibodies by immunocytochemistry. Cultures were incubated in 5% CO2 atmosphere at 37° C. in saturated humidity. The medium was changed every other day.
The virally transfected HUVECs were tested for functionality by their ability to undergo angiogenesis in a three-dimensional fibrin-containing matrix (FIG. 16); and their ability to sequester acetylated low density lipoprotein labelled with 1,1′-dioctadecyl-3,3,3′,3′-tetramethylindocarbocyanine perchlorate (DiI-Ac-LDL; Biomed. Technol. Inc., Stoughton, Mass.), (FIGS. 17 and 18). […]

[4] = system: endothelium of reconstructed corneas (Na/K ATPase); assay: Endothelial function test: corneal thickness by Optical Coherence Tomography after ouabain; format: cell-based, human; conditions: 10^-4M ouabain in DMEM, 2 hours, silicone oil on epithelium; one set of corneas, preliminary
Source text: Ouabain, a cardiac glycoside, inhibits Na/K ATPase, disrupting corneal endothelial functioning. When this is applied to the cornea, the endothelium looses its pumping function, and without this, the cornea will swell (Watsky et al. 1990).
1. Corneas were reconstructed in 30 mm inserts. In this experiment, we have contructed them with the epithelium down.
2. A whole cornea was immersed in DMEM only.
3. At the start of the experiment, medium outside insert was removed and replaced with silicone oil. This essentially seals off the epithelium. Corneal thickness was measured using Optical Coherence Tomography (OCT) (Humphrey Instruments, Carl Zeiss, Inc.). Four readings were taken from each cornea and the average was taken.
4. DMEM within the control insert was replaced with 1 ml of fresh DMEM only. Experimental cornea was treated with 10^-4M ouabain in DMEM.
5. After 2 hours, the corneal thicknesses were measured by OCT.
6. Changes in corneal thickness (if any) was calculated.

reconstructed corneas [5] = assay: Live-dead staining of reconstructed corneas after chemical exposure; format: cell-based, human; conditions: SDS; 0.01% benzalkonium chloride solution
Source text: Live cells are green, while dying or dead cells are orange-red. […] C.

reconstructed corneas [6] = assay: Responses of reconstructed corneas to aqueous test chemicals (wound, corneal transparency); format: cell-based, human; conditions: 100 μl centrally for 10 min, washed off with saline, re-cultured 3 days; 10% SDS, 0.01% benzalkonium chloride solution
Protocol: Each cornea was exposed centrally to 100 μl of the test chemical for 10 min, after which the chemical was washed off with saline and the corneas were re-cultured for a further 3 days. The saline-treated cornea served as the control.

[7] = system: FFA-activated K^+ current of cultured human corneal epithelial cells; assay: Perforated-patch whole-cell patch clamp, pharmacological activators (FFA-activated current); format: cell-based; conditions: for effect on the FFA-activated current: 3 mM TEA or 5 mM Ba^+2
Protocol: as §1
Macroscopic currents in single cells were examined using the perforated-patch configuration of the whole-cell patch-clamp technique with amphotericin B as the perforating agent. The composition of the patch pipette in millimolar was 145 potassium methanesulfonate, 2.5 NaCl, 2.5 CaCl2, 5 HEPES, and […] amphotericin B. Patch pipettes were fabricated from KG-12 capillary glass, coated with Sylgard (Dow Corning, Midland, Mich.) and fire polished. Currents were recorded at room temperature using a patch-clamp amplifier operated by Gateway 486DX2 computer (Gateway 2000, Sioux City, S. Dak.) loaded with pCLAMP software (Axon 200A, Axon Instruments, Foster City, Calif.) for the generation of voltage-clamp protocols. Current recordings were capacity compensated using the amplifier circuitry, sampled between 2 to 5 kHz, filtered between 1 to 2 kHz, and subsequently analyzed with the software program. Voltage-clamp protocols were repeated at least three times to obtain the average current response to a voltage pulse. Current voltage (I-V) relationships were corrected for the junction potential generated by the pipette solution and the amphotericin B-induced Donnan potential by subtracting the difference between the reversal potential of tail currents measured in symmetrical K^+ solutions and the 0 mV potential.
The tests of examples 1.1, 1.2, and 1.3 were repeated following the addition of 100 μM flufenamic acid (FFA) to the NaCl Ringer's bath.
To determine the ion selectivity of this TEA-sensitive FFA-activated current, cultured human corneal epithelial cells were bathed in NaCl Ringer's solution with 100 μM FFA and a family of instantaneous tail currents was generated. The same cells were then bathed in NaCl Ringer's solution with 100 μM FFA and 3 mM TEA and a second family of instantaneous tail currents was generated. An instantaneous tail I-V plot was obtained by digitally subtracting the instantaneous tail responses determined for the same cell bathed with FFA with and without TEA.

## [Gd] [gadolinium]
[1]
  sensitivity of the nonselective cation current: not sensitive

## FGF-2: basic fibroblast growth factor
[2]; FGF-2 (50 ng/ml)
  Response to Growth Factors, Cell Lines: Angiogenesis
[2]; FGF-2, concentration not given
  Response to Growth Factors, Cell Lines: Cell death
[3]; FGF-2 (50 ng/ml)
  Response to Growth Factors, Normal Cells: Angiogenesis
[3]; FGF-2, concentration not given
  Response to Growth Factors, Normal Cells: Cell death

## C[C@@H]1O[C@@H](O[C@H]2C[C@@H](O)[C@]3(CO)[C@H]4[C@H](O)C[C@]5(C)[C@@H](C6=CC(=O)OC6)CC[C@]5(O)[C@@H]4CC[C@]3(O)C2)[C@H](O)[C@H](O)[C@H]1O [ouabain, Ouabain]
[4]
  change in corneal thickness (swelling): 24%

## benzalkonium chloride
Reconstructed corneas [5]
  live-dead staining, epithelial cells: some dead and dying cells but mostly live cells
  live-dead staining, stromal cells: mostly alive
  penetration into the stromal compartment: little/no penetration of solution into the stromal compartment
Reconstructed corneas [6]
  wound / change of corneal transparency: caused wounds to the centre of the cornea

## [Ba+2] [barium]
[1]
  sensitivity of the nonselective cation current: not sensitive
[7]; 100 μM FFA
  effect on the FFA-activated current: blocked

## O=C(O)c1ccccc1Nc1cccc(C(F)(F)F)c1 [FFA, flufenamic acid]
[7]
  voltages at which a second FFA-stimulated K^+ current is active: greater than +10 mV
[7]; 100 μM FFA
  activation voltage of the FFA-stimulated current (I-V plot): about −60 mV
[7]; 100 μM FFA in NaCl Ringer's bath, versus cells not exposed
  increase in the maximum outward current: more than 10 fold
[7]; 100 μM FFA with and without 3 mM TEA, digital subtraction of instantaneous tail currents
  Erev for the TEA-sensitive FFA-activated current: about −80 mV
[7]; 100 μM FFA, same cell
  reversibility of the FFA response: reversible and repeatable

## CC[N+](CC)(CC)CC [TEA, tetraethylammonium]
[7]; 100 μM FFA
  effect on the FFA-activated current: blocked
